Assay [1] has as its system suture-induced corneal NV (HA and LA). As to the kind of experiment: Suture-induced inflammatory corneal angiogenesis (slit-lamp NV score, blood and lymphatic vessel density). Format: in vivo, mice. Here is the method: FIG. 5. Suture-induced Corneal HA is Reduced with Lipoxin. ATLa or vehicle was subconjunctivally injected every 48 h from 0 to 14 days after suture placement. A. In a masked fashion, corneal NV was scored biomicroscopically with a slit-lamp using a grid system. Values are expressed as the mean (±SEM) of 6 corneas. B. Whole corneal tissues were harvested on day 14 and double-stained with anti-CD31 (green) and anti-LYVE-1 (red) for epifluorescence microscopy (20× magnification). C. The density of blood vessels (CD31^high/LYVE-1^−) or lymphatic vessels (CD31^lowLYVE-1^high) covering the cornea was analyzed. Values are expressed as the mean (±SEM) of 6 corneas of per treatment group (**P<0.001 vs vehicle-treated group, t-test), and the data are representative of two independent experiments. […]
BALB/c mice were randomized to receive ATLa, or vehicle (normal saline) by subconjunctival injection in a masked fashion after suture or hydron pellet placement. […] ATLa was synthesized as described previously.^20 The physical properties were monitored routinely via LC/MS/MS matching the reported biological and physical properties prior to analysis in present experiments.
Full thickness corneal tissue or 8 μm-frozen sections were fixed in acetone for 15 minutes at room temperature. […] Finally, the samples were covered with mounting medium (Vector Laboratories, Burlingame, Calif.) and analyzed by epifluorescence microscopy (Eclipse E800; Nikon, Tokyo, Japan). […]
To quantify corneal angiogenesis, digital pictures of corneal flat-mounts were taken using an image analysis system (Spot Image Analysis, Diagnostic Instruments, Sterling Heights, Mich.). The areas covered by CD31^high/LYVE-1^−-vessels (blood vessels) or CD31^lowLYVE-1^high vessels (lymphatics) were measured morphometrically using NIH Image J software (version 1.34s; http://rsb.info.nih.gov/ij). […]

The next assay relates to VEGF-D mRNA. Kind of assay: Real-time PCR of VEGF-D mRNA in suture-induced inflamed corneas. It counts as in vivo, mice. The following applies: after suture placement; vs vehicle-treated controls. The protocol:
FIG. 4. The Impact of Lipoxin on the mRNA Expression of VEGFs and VEGFRs in Inflamed Corneas. ATLa or vehicle was subconjunctivally injected at 0 h and 48 h after suture placement. For each compound treatment, corneas were harvested from a group of mice at 24 h, and another group at 72 h after suture placement, as well as from normal untreated control corneas (6 corneas per group). (A) VEGF ligand species (VEGF-A, VEGF-C, VEGF-D) and (B) VEGFRs (VEGFR2 and VEGFR3) were tested by real-time PCR and normalized to GAPDH mRNA. Values are expressed as fold change over the normal control cornea. Results represent the mean (±SEM) of three samples per group (each sample consisted of 2 pooled corneas), and the data are representative of two independent experiments (*P<0.05, **P<0.001, ***P<0.0005, vs vehicle-treated group, t-test). […]
BALB/c mice were randomized to receive ATLa, or vehicle (normal saline) by subconjunctival injection in a masked fashion after suture or hydron pellet placement. […] ATLa was synthesized as described previously.^20 The physical properties were monitored routinely via LC/MS/MS matching the reported biological and physical properties prior to analysis in present experiments. […]
On the technique in general: In qPCR the cycle at which signal appears reflects the starting amount.

For another assay, the system named is EC. The following applies: cited from earlier work.

The values below come from patent US20100105772A1, “USE OF NOVEL LIPID MEDIATORS TO INHIBIT ANGIOGENESIS” (priority 2008, published 2010).

As to `COC(=O)CCC[C@H](O)[C@H](O)/C=C/C=C/C=C\C=C\[C@H](O)COc1ccc(F)cc1` [ATLa, 15-epi-16-(para-fluoro)-phenoxy-lipoxin A4 methyl ester], the “angiogenic response (growth of corneal neovessels, slit lamp biomicroscopy)” value in assay [1] (2-week time course, injection every 48 h, vs vehicle control) was “significant suppression”. Besides, the “BV density (CD31high/LYVE-1−)” value in assay [1] (day 14 after suture placement, n=6, mean±SEM) turned out to be 8.26±0.63%. The “density of lymphatic vessels (CD31low LYVE-1high)” value in assay [1] (day 14 after suture placement, vs vehicle controls) is reported as “not observed”. Besides, the “VEGF-D mRNA expression” value in the assay with VEGF-D mRNA is reported as “not significantly altered”. Besides, in the assay on EC (VEGF-A-induced angiogenesis, references 37, 38), the EC adhesion result is “inhibition”. Moreover, in the assay with EC (reference 39), the “VEGF-A-induced EC proliferation” value is on record as “suppression”.
